Tests used:
Bile salt export pump = Bile salt export pump (Homo sapiens, UniProt O95342); type: functional
Adenosine receptor A1 = biological target: T1, Adenosine receptor A1 (Homo sapiens, UniProt P30542)
T1 sequence (P30542 whole entry): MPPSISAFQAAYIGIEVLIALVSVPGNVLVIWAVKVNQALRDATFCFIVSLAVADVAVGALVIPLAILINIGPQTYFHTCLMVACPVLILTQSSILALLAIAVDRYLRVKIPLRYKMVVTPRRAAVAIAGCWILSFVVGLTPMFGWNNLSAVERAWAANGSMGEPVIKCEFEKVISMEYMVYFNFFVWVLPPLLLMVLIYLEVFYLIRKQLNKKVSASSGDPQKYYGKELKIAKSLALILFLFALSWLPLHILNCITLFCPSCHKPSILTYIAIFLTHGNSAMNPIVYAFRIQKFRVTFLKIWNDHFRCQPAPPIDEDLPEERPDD

Adenosine receptor A3 = biological target: T2, Adenosine receptor A3 (Homo sapiens, UniProt P0DMS8)
T2 sequence (P0DMS8 whole entry): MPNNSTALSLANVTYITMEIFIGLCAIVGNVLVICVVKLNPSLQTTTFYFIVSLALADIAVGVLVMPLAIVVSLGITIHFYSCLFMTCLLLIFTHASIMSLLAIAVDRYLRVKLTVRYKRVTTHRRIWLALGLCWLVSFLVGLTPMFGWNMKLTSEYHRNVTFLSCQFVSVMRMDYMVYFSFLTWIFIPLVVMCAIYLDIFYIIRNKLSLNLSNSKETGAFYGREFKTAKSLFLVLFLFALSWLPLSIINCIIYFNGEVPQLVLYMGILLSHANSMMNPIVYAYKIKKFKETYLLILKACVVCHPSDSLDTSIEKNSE

[1] = biological target: T3, Alpha-2A adrenergic receptor (Homo sapiens, UniProt P08913); type: functional, cell-based
T3 sequence (P08913 whole entry): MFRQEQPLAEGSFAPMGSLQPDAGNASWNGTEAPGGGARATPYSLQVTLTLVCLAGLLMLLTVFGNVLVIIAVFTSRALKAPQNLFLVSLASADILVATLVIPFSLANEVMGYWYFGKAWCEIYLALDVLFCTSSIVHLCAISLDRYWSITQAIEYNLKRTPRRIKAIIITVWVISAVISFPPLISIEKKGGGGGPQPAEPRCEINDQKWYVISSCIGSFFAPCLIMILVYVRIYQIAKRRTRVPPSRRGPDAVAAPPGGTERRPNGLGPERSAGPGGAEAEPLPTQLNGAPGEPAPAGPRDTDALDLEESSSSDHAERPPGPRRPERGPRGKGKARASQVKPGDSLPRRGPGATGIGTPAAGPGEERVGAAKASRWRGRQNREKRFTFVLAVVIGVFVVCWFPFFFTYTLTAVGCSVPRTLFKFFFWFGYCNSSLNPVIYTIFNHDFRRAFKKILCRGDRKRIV

[2] = biological target: T4, Cholecystokinin receptor type A (Homo sapiens, UniProt P32238)
T4 sequence (P32238 whole entry): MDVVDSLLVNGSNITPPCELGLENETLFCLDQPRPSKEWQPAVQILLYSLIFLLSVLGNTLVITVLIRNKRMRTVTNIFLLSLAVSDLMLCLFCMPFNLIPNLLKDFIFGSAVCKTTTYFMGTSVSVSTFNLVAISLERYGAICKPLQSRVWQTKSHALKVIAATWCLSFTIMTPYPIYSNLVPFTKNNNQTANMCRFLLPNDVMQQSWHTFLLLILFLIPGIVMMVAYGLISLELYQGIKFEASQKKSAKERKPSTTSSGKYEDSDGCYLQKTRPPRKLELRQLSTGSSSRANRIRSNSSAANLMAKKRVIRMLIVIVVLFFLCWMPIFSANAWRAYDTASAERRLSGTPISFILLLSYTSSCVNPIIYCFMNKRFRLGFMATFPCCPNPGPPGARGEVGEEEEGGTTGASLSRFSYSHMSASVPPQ

[3] = biological target: Growth hormone secretagogue receptor type 1 (Homo sapiens, UniProt Q92847)
Chain of Growth hormone secretagogue receptor type 1 (Q92847 whole entry): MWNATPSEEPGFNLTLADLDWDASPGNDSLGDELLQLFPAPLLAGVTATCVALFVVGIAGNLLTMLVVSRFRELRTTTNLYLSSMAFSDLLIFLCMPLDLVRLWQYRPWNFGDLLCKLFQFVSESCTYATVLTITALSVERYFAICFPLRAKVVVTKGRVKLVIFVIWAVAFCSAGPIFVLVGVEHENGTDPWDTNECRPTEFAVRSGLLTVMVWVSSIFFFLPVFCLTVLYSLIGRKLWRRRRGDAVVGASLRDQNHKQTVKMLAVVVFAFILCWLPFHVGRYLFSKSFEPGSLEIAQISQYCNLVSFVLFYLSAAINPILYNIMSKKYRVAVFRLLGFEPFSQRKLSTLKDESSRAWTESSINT

[4] = biological target: T5, 5-hydroxytryptamine receptor 1A (Homo sapiens, UniProt P08908); type: functional, cell-based
T5 sequence (P08908 whole entry): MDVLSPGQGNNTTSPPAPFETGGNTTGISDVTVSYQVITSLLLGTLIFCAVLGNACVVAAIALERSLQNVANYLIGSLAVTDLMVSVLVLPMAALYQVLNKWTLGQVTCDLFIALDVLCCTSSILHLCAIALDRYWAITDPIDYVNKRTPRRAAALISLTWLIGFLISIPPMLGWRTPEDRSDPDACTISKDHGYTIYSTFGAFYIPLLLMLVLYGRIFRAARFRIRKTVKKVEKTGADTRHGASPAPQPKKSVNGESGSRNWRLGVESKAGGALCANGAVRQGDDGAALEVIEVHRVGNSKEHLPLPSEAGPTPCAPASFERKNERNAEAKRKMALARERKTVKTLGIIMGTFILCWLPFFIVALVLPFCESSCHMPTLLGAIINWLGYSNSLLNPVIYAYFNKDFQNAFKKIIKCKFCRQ

[5] = biological target: T6, Prostaglandin G/H synthase 1 (Rattus norvegicus, UniProt Q63921); type: functional
T6 sequence (Q63921 whole entry): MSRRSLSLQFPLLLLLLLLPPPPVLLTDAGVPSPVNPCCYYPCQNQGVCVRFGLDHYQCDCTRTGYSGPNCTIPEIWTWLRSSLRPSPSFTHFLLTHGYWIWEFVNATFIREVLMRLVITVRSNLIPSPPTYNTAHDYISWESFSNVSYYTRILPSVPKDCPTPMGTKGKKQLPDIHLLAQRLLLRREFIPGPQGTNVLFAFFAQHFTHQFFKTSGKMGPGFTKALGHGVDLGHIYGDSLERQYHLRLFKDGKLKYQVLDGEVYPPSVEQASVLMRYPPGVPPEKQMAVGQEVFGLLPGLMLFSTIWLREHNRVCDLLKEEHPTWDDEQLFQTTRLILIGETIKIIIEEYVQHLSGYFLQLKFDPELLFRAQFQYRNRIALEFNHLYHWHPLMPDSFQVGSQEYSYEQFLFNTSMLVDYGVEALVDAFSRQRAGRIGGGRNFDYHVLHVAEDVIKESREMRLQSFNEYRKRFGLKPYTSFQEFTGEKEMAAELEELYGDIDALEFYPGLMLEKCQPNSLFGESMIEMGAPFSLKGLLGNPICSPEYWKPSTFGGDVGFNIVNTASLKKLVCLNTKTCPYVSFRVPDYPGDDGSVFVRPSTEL

[6] = biological target: Sodium-dependent dopamine transporter (Homo sapiens, UniProt Q01959)
Chain of Sodium-dependent dopamine transporter (Q01959 whole entry): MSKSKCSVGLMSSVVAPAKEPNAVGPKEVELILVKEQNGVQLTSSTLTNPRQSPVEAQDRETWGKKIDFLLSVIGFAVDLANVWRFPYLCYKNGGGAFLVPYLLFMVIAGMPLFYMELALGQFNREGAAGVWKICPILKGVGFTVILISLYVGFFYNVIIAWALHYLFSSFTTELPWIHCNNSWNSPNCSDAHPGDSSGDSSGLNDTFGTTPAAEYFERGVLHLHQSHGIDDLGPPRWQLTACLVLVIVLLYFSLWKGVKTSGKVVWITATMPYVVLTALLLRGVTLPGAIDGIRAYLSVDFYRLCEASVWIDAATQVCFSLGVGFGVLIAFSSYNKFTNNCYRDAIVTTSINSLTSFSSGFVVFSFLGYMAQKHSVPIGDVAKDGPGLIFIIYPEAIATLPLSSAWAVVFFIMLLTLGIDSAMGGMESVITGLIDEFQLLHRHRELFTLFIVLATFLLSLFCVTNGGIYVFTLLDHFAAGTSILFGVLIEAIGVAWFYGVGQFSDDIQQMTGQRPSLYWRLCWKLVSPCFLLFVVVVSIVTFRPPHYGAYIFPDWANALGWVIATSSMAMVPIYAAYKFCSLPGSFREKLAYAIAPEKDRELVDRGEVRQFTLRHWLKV
Note: assay procedure not described here.

Chain of Bile salt export pump (O95342 whole entry): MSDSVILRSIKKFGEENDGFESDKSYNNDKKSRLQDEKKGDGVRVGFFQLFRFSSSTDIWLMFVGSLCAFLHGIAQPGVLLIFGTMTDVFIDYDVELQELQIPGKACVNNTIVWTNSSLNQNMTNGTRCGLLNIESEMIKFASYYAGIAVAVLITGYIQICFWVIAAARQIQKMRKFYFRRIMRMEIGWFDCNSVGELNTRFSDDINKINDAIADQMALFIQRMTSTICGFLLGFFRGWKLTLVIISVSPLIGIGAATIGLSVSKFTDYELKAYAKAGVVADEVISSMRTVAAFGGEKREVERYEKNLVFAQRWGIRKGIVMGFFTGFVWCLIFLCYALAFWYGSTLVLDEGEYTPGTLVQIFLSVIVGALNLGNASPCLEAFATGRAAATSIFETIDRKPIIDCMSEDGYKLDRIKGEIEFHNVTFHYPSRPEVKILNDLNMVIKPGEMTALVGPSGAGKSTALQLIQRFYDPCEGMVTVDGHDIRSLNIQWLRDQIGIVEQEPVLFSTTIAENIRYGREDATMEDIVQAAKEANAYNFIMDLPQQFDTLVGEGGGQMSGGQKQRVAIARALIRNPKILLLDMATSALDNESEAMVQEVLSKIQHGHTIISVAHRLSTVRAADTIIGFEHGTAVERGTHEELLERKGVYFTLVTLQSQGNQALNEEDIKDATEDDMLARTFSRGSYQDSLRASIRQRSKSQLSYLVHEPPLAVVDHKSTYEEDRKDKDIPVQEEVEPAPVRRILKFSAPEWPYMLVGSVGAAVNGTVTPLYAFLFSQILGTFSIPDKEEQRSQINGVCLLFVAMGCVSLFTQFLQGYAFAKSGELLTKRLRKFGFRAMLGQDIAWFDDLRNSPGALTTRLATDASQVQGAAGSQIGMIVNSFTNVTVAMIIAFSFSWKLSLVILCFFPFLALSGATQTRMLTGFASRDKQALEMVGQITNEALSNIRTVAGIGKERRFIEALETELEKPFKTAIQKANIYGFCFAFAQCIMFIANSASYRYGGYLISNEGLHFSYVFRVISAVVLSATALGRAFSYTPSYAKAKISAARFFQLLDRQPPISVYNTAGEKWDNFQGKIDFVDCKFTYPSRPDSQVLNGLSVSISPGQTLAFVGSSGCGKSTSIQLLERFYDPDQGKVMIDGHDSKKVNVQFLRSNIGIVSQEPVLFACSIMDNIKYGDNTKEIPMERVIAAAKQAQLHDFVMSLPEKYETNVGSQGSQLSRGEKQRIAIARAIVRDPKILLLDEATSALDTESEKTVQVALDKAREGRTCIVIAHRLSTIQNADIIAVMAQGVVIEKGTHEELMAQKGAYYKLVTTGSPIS

SMILES | AC50 (Bile salt export pump) | AC50 (Adenosine receptor A1) | AC50 (Adenosine receptor A3) | AC50 [1] | AC50 [2] | AC50 [3] | AC50 [4] | AC50 [5] | AC50 [6]
NS(=O)(=O)c1cc2c(cc1Cl)NCNS2(=O)=O [HYDROCHLOROTHIAZIDE] | > 300 µM | > 30 µM | > 30 µM | > 10 µM | > 30 µM | > 30 µM | > 10 µM | > 30 µM | > 10 µM
CC(C)Cc1ccc(CC(=O)O)cc1 [IBUFENAC] | > 300 µM | > 30 µM | > 30 µM | > 30 µM | > 30 µM | > 30 µM | > 30 µM | > 30 µM | > 30 µM
CC(C)NNC(=O)c1ccncc1 [IPRONIAZID] | > 300 µM | > 30 µM | > 30 µM | > 30 µM | > 30 µM | > 30 µM | > 30 µM | 0.45 µM | > 30 µM
NC[C@H]1O[C@H](O[C@H]2[C@H](O)[C@@H](O[C@H]3O[C@H](CO)[C@@H](O)[C@H](N)[C@H]3O)[C@H](N)C[C@@H]2N)[C@H](O)[C@@H](O)[C@@H]1O [KANAMYCIN] | > 300 µM | > 10 µM | > 10 µM | > 10 µM | > 10 µM | > 10 µM | > 10 µM | > 10 µM | > 10 µM
CN1C(=O)CC(C)(c2ccccc2)C1=O (stereo unspecified) [METHSUXIMIDE] | > 300 µM | > 10 µM | > 10 µM | > 10 µM | > 10 µM | > 10 µM | > 10 µM | > 10 µM | > 10 µM

More lines, now with the values ahead:

AC50 (Bile salt export pump) | AC50 (Adenosine receptor A1) | AC50 (Adenosine receptor A3) | AC50 [1] | AC50 [2] | AC50 [3] | AC50 [4] | AC50 [5] | AC50 [6] | SMILES
140 µM | > 10 µM | > 10 µM | > 10 µM | > 10 µM | > 10 µM | > 10 µM | > 10 µM | > 10 µM | C[C@H]1C[C@@H]2[C@H]([C@@H](O)C[C@@]3(C)[C@H]2CC[C@]3(O)C(=O)CO)[C@@]2(C)C=CC(=O)C=C12 [METHYLPREDNISOLONE]
> 300 µM | > 30 µM | > 30 µM | > 10 µM | > 30 µM | > 30 µM | > 10 µM | > 30 µM | > 10 µM | CCN(CC)CCNC(=O)c1cc(Cl)c(N)cc1OC [METOCLOPRAMIDE]
280 µM | > 10 µM | > 10 µM | > 10 µM | > 10 µM | > 10 µM | > 10 µM | > 10 µM | > 10 µM | CC(C)(C(=O)c1cccnc1)c1cccnc1 [METYRAPONE]
> 300 µM | > 30 µM | > 30 µM | > 30 µM | > 30 µM | > 30 µM | > 30 µM | > 10 µM | > 30 µM | Cc1cccc(C)c1OCC(C)N (stereo unspecified) [MEXILETINE]

Reference: ChEMBL document CHEMBL5291721, “A preclinical secondary pharmacology resource illuminates target-adverse drug reaction associations of marketed drugs” (Nat Commun, 2023)
